From the supplement of paper PMC10307832 come the findings set out here.

Experiment in all cases: relative viability (nuclei count vs DMSO), 5 days (fraction); higher = more cells survive
Compound in the assay “Adavosertib + Lapatinib”: C=CCn1c(=O)c2cnc(Nc3ccc(N4CCN(C)CC4)cc3)nc2n1-c1cccc(C(C)(C)O)n1 [Adavosertib] + CS(=O)(=O)CCNCc1ccc(-c2ccc3ncnc(Nc4ccc(OCc5cccc(F)c5)c(Cl)c4)c3c2)o1 [Lapatinib] (partner 2 µM)
In short, it runs like this: (§1)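 Relative viability divides the nuclei count in treated wells by that in vehicle wells. Lung cancer cell lines were seeded in 1536-well plates, dosed by pin tool the next day, and fixed and stained after 5 days in one step with final 0.05% Triton X-100, 1% formaldehyde and 1 ug/ml Hoechst. Dosing was a single drug or a fixed anchor-drug dose plus five library-drug doses (not always all listed) in √10 steps, and values are medians of duplicate plates imaged at 4×.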

Compound in the assay “Adavosertib + Foretinib”: C=CCn1c(=O)c2cnc(Nc3ccc(N4CCN(C)CC4)cc3)nc2n1-c1cccc(C(C)(C)O)n1 [Adavosertib] + COc1cc2c(Oc3ccc(NC(=O)C4(C(=O)Nc5ccc(F)cc5)CC4)cc3F)ccnc2cc1OCCCN1CCOCC1 [Foretinib] (partner 0.25 µM)
The method in brief:
as §1

Compound in the assay “Nelarabine + OSI-027”: COc1nc(N)nc2c1ncn2[C@@H]1O[C@H](CO)[C@@H](O)[C@@H]1O [Nelarabine] + COc1cccc2cc(-c3nc([C@H]4CC[C@H](C(=O)O)CC4)n4ncnc(N)c34)[nH]c12 [OSI-027] (partner 0.5 µM)
In short, it runs like this: as §1

Compound in the assay “Nelarabine + Olaparib”: COc1nc(N)nc2c1ncn2[C@@H]1O[C@H](CO)[C@@H](O)[C@@H]1O [Nelarabine] + O=C(c1cc(Cc2n[nH]c(=O)c3ccccc23)ccc1F)N1CCN(C(=O)C2CC2)CC1 [Olaparib] (partner 8 µM)
In short, it runs like this: as §1

With HARA, the relative viability with Adavosertib + Lapatinib (first compound 0.01 µM) was determined as 0.648; with Adavosertib + Lapatinib (first compound 0.03162 µM), 0.858; with Adavosertib + Lapatinib (first compound 0.1 µM) it was 0.648; with Adavosertib + Lapatinib (first compound 0.3162 µM), 0.729; with Adavosertib + Foretinib (first compound 0.01 µM) it was 0.977; in the assay with Adavosertib + Foretinib (first compound 0.03162 µM), 0.892. For the same cell line, the relative viability came out at 0.84 with Adavosertib + Foretinib (first compound 0.1 µM); 0.335 with Adavosertib + Foretinib (first compound 0.3162 µM); 0.645 with Nelarabine + OSI-027 (first compound 0.01 µM); 0.583 with Nelarabine + OSI-027 (first compound 0.03162 µM); 0.439 with Nelarabine + OSI-027 (first compound 0.1 µM); 0.671 in the assay with Nelarabine + OSI-027 (first compound 0.3162 µM). Also, the relative viability with Nelarabine + OSI-027 (first compound 1 µM) was 0.487; with Nelarabine + Olaparib (first compound 0.01 µM) it was 0.843; in the assay with Nelarabine + Olaparib (first compound 0.03162 µM), 0.569; with Nelarabine + Olaparib (first compound 0.1 µM), 0.746; in the assay with Nelarabine + Olaparib (first compound 0.3162 µM), 0.834; with Nelarabine + Olaparib (first compound 1 µM), 0.636.
Turning to NCI-H1437, the relative viability with Adavosertib + Lapatinib (first compound 0.01 µM) was found to be 0.83; with Adavosertib + Lapatinib (first compound 0.03162 µM), 0.778; with Adavosertib + Lapatinib (first compound 0.1 µM) it was 0.831; with Adavosertib + Lapatinib (first compound 0.3162 µM), 0.812; in the assay with Adavosertib + Foretinib (first compound 0.01 µM) it was 1.2; in the assay with Adavosertib + Foretinib (first compound 0.03162 µM) it was 1.35. The relative viability with Adavosertib + Foretinib (first compound 0.1 µM) was determined as 1.27; with Adavosertib + Foretinib (first compound 0.3162 µM), 1.25; with Nelarabine + OSI-027 (first compound 0.01 µM) it was 1.04; in the assay with Nelarabine + OSI-027 (first compound 0.03162 µM), 0.859; with Nelarabine + OSI-027 (first compound 0.1 µM), 0.845; with Nelarabine + OSI-027 (first compound 0.3162 µM), 0.948. Moreover, the relative viability with Nelarabine + OSI-027 (first compound 1 µM) was found to be 0.796; with Nelarabine + Olaparib (first compound 0.01 µM), 0.701; in the assay with Nelarabine + Olaparib (first compound 0.03162 µM), 0.611; with Nelarabine + Olaparib (first compound 0.1 µM), 0.656; with Nelarabine + Olaparib (first compound 0.3162 µM) it was 0.695; with Nelarabine + Olaparib (first compound 1 µM), 0.611.
In the case of COR-L23, the relative viability with Adavosertib + Lapatinib (first compound 0.01 µM) was 1.06; in the assay with Adavosertib + Lapatinib (first compound 0.03162 µM), 1.09; in the assay with Adavosertib + Lapatinib (first compound 0.1 µM), 0.769; in the assay with Adavosertib + Lapatinib (first compound 0.3162 µM) it was 0.415; in the assay with Adavosertib + Foretinib (first compound 0.01 µM), 1.02; with Adavosertib + Foretinib (first compound 0.03162 µM) it was 0.997. In addition, the relative viability worked out at 1.08 with Adavosertib + Foretinib (first compound 0.1 µM); 0.644 with Adavosertib + Foretinib (first compound 0.3162 µM); 0.911 in the assay with Nelarabine + OSI-027 (first compound 0.01 µM); 0.611 with Nelarabine + OSI-027 (first compound 0.03162 µM); 0.854 with Nelarabine + OSI-027 (first compound 0.1 µM); 0.878 with Nelarabine + OSI-027 (first compound 0.3162 µM). Besides, the relative viability with Nelarabine + OSI-027 (first compound 1 µM) stood at 0.759; in the assay with Nelarabine + Olaparib (first compound 0.01 µM), 0.432; with Nelarabine + Olaparib (first compound 0.03162 µM), 0.31; with Nelarabine + Olaparib (first compound 0.1 µM), 0.301; with Nelarabine + Olaparib (first compound 0.3162 µM) it was 0.373; with Nelarabine + Olaparib (first compound 1 µM) it was 0.363.
On to 201T, for which the relative viability with Adavosertib + Lapatinib (first compound 0.01 µM) came out at 1.02; with Adavosertib + Lapatinib (first compound 0.03162 µM), 1.01; in the assay with Adavosertib + Lapatinib (first compound 0.1 µM) it was 1.02; with Adavosertib + Lapatinib (first compound 0.3162 µM), 1.09; in the assay with Adavosertib + Foretinib (first compound 0.01 µM), 1.28; with Adavosertib + Foretinib (first compound 0.03162 µM) it was 1.14. Moreover, the relative viability worked out at 1.23 with Adavosertib + Foretinib (first compound 0.3162 µM); 0.85 with Nelarabine + OSI-027 (first compound 0.01 µM); 0.638 with Nelarabine + OSI-027 (first compound 0.03162 µM); 0.762 in the assay with Nelarabine + OSI-027 (first compound 0.1 µM); 1.15 with Nelarabine + OSI-027 (first compound 0.3162 µM); 0.85 with Nelarabine + OSI-027 (first compound 1 µM). In addition, the relative viability came to 0.876 with Nelarabine + Olaparib (first compound 0.01 µM); 0.835 with Nelarabine + Olaparib (first compound 0.03162 µM); 0.845 in the assay with Nelarabine + Olaparib (first compound 0.1 µM); 0.858 in the assay with Nelarabine + Olaparib (first compound 0.3162 µM); 0.835 with Nelarabine + Olaparib (first compound 1 µM).
